Inhibition and Activity data for one compound are collected here from ChEMBL document CHEMBL1153162, “Total synthesis and biological evaluation of methylgerambullone” (2010).

Settings in all cases: Cavia porcellus
For assay [1], the system named is Ileum. In words: […] activity in longitudinal smooth muscle of guinea pig ileum assessed as inhibition of acetylcholine-induced contraction at 30 mg/L. The class given is functional.
The test system of assay [2] is Ileum. As to the kind of experiment: […] activity in longitudinal smooth muscle of guinea pig ileum assessed as inhibition of acetylcholine-induced contraction at 60 mg/L. It is filed as functional.
The test system of assay [3] is Ileum. As to the kind of experiment: […] activity in longitudinal smooth muscle of guinea pig ileum assessed as inhibition of acetylcholine-induced contraction at 100 mg/L. The class given is functional.
For assay [4], the system named is Ileum. As to the kind of experiment: […] activity in longitudinal smooth muscle of guinea pig ileum assessed as inhibition of acetylcholine-induced contraction. It is filed as functional, tissue-based.

`CC(C)=CC(=O)C/C(C)=C/COc1ccc(CCN(C)C(=O)/C=C/S(C)(=O)=O)cc1` [METHYLGERAMBULLONE]: the inhibition (in general, the relative decrease from the control value, in per cent) at 30 µg/mL with Ileum [1] worked out at 45.3%. Besides, the inhibition at 60 µg/mL in the assay on Ileum [2] turned out to be 70%. For the same compound, the inhibition at 100 µg/mL in the assay on Ileum [3] turned out to be 78.7%. Moreover, the Activity entry in the assay on Ileum [4] is “Dose-dependent effect”.
